Legend:
[1] = method code SF-HPLC, from DOI: 10.1248/cpb.44.1338

SMILES | logP [1] | logP
CN(C)C(=O)Oc1cccc([N+](=O)[O-])c1 | 1.56 | –
CNC(=O)Oc1cccc(C(C)=O)c1 | – | 0.97
CNC(=O)Oc1ccc(F)cc1 | – | 1.35
CNC(=O)Oc1cccc([N+](=O)[O-])c1 | – | 1.37
CNC(=O)Oc1ccc(I)cc1 | – | 2.34
CC(=O)c1ccc(OC(=O)N(C)C)cc1 | – | 1.23
CN(C)C(=O)Oc1ccc(Br)cc1 | 2.46 | –
CNC(=O)Oc1cccc(C)c1 | – | 1.73
CN(C)C(=O)Oc1ccc(C#N)cc1 | 1.21 | –
CNC(=O)Oc1cccc(OC)c1 | – | 1.34
CN(C)C(=O)Oc1cccc(C#N)c1 | 1.23 | –
CCc1cccc(OC(=O)NC)c1 | – | 2.23
CN(C)C(=O)Oc1cccc(N(C)C)c1 | 1.93 | –
CCc1cccc(OC(=O)N(C)C)c1 | 2.47 | –
CN(C)C(=O)Oc1cccc(Cl)c1 | – | 2.26
CCOc1ccc(OC(=O)NC)cc1 | – | 1.75
CNC(=O)Oc1cccc(C#N)c1 | – | 1.01

SMILES | logP [1] | logP
CN(C)C(=O)Oc1ccc(Cl)cc1 | – | 2.23
CCc1ccc(OC(=O)NC)cc1 | – | 2.27
CC(C)c1ccc(OC(=O)N(C)C)cc1 | – | 3.07
CNC(=O)Oc1cccc(N(C)C)c1 | – | 1.64
CCC(=O)c1cccc(OC(=O)NC)c1 | – | 1.51
CCCc1ccc(OC(=O)N(C)C)cc1 | 3.15 | –
CN(C)C(=O)Oc1ccc([N+](=O)[O-])cc1 | – | 1.54
CCC(C)c1ccc(OC(=O)N(C)C)cc1 (stereo not drawn) | – | 3.6
CN(C)C(=O)Oc1ccc(F)cc1 | – | 1.65
CN(C)C(=O)Oc1cccc(F)c1 | 1.75 | –
CNC(=O)Oc1cccc(I)c1 | – | 2.33
CCOc1cccc(OC(=O)NC)c1 | – | 1.82
Cc1ccc(OC(=O)N(C)C)cc1 | – | 2.1
CCc1ccc(OC(=O)N(C)C)cc1 | – | 2.58
CNC(=O)Oc1ccc(OC)cc1 | – | 1.23
CNC(=O)Oc1ccc(C)cc1 | – | 1.73

Reference: the SangsterLogP compilation
